In patent publication US10988478B1, “Pyrazolo[1,5a]pyrimidine derivatives as IRAK4 modulators” (Genentech, Inc., priority 2015, dated 2021):

Target: human IRAK4 (Homo sapiens (Human), UniProt Q9NWZ3)
Test: IRAK4 kinase inhibition, Transcreener fluorescence polarization ADP assay
Format: biochemical
Conditions: recombinant full-length His6-IRAK4; 125 uM ATP; 90 min; Ki computed using ATP Km 642 uM
Method: Compounds were assayed for inhibition of human IRAK4 and IRAK1 catalytic activity using recombinant enzyme produced from insect cells. Full-length IRAK4 protein, carrying an N-terminal His6-Tag, was obtained from Life Technologies (Carlsbad, Calif., USA). The IRAK1 construct was produced internally and was comprised of IRAK1 residues Arg194 to Ser712, preceded by an NH2-terminal His6 tag and the coding sequence for glutathione-S-transferase.

Chain of human IRAK4 (Q9NWZ3 whole entry): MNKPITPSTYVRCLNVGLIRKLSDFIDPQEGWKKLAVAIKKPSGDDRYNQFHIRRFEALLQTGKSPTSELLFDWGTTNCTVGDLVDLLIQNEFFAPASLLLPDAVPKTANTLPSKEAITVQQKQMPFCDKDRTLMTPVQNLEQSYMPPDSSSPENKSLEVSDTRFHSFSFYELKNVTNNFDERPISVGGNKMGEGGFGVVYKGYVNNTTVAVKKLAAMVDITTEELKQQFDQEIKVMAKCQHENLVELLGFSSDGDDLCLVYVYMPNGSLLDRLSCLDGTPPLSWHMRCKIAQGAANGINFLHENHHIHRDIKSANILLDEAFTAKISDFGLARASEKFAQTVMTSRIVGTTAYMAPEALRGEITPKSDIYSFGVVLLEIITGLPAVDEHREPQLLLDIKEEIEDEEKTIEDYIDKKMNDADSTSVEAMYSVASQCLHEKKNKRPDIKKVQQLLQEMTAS

Row | Compound | Ki [nM]
1 | CC1(C)Cc2cc(NC(=O)c3cnn4cccnc34)c(N3CCN4CCC[C@H]4C3)cc2O1 [Example 442, (S)-N-(6-(hexahydropyrrolo[1,2-a]pyrazin-2(1H)-yl)-2,2-dimethyl-2,3-dihydrobenzofuran-5-yl)pyrazolo[1,5-a]pyrimidine-3-carboxamide] | 96
2 | CC1(C)Cc2cc(NC(=O)c3cnn4cccnc34)c(N3CCN4CCC[C@@H]4C3)cc2O1 [Example 443, (R)-N-(6-(hexahydropyrrolo[1,2-a]pyrazin-2(1H)-yl)-2,2-dimethyl-2,3-dihydrobenzofuran-5-yl)pyrazolo[1,5-a]pyrimidine-3-carboxamide] | 38
3 | CSCC[C@@]1(C)Cc2cc(NC(=O)c3cnn4cccnc34)c(N3CCOCC3)cc2O1 [Example 444, (R)—N-(2-methyl-2-(2-(methylthio)ethyl)-6-morpholino-2,3-dihydrobenzofuran-5-yl)pyrazolo[1,5-a]pyrimidine-3-carboxamide] | 2.8
4 | CC1(C)Cc2cc(NC(=O)c3cnn4cccnc34)c(O[C@@H]3CCN(CC(N)=O)C3)cc2O1 [Example 445, (R)—N-(6-((1-(2-amino-2-oxoethyl)pyrrolidin-3-yl)oxy)-2,2-dimethyl-2,3-dihydrobenzofuran-5-yl)pyrazolo[1,5-a]pyrimidine-3-carboxamide] | 3.3
5 | CC1(C)Cc2cc(NC(=O)c3cnn4cccnc34)c(OC3CN(CCO)C3)cc2O1 [Example 446, N-(6-((1-(2-hydroxyethyl)azetidin-3-yl)oxy)-2,2-dimethyl-2,3-dihydrobenzofuran-5-yl)pyrazolo[1,5-a]pyrimidine-3-carboxamide] | 52
6 | CC1(C)Cc2cc(NC(=O)c3cnn4cccnc34)c(O[C@H]3CCN(CC(N)=O)C3)cc2O1 [Example 447, (S)-N-(6-((1-(2-amino-2-oxoethyl)pyrrolidin-3-yl)oxy)-2,2-dimethyl-2,3-dihydrobenzofuran-5-yl)pyrazolo[1,5-a]pyrimidine-3-carboxamide] | 6
7 | CCn1cc(COc2cc3c(cc2NC(=O)c2cnn4cccnc24)CC(C)(C)O3)cn1 [Example 448, N-(6-((1-ethyl-1H-pyrazol-4-yl)methoxy)-2,2-dimethyl-2,3-dihydrobenzofuran-5-yl)pyrazolo[1,5-a]pyrimidine-3-carboxamide] | 24
8 | N[C@H]1CO[C@@H](CN2Cc3cc(NC(=O)c4cnn5cccnc45)c(N4CCOCC4)cc3C2=O)OC1 [Example 449, N-(2-(((2R,5R)-5-amino-1,3-dioxan-2-yl)methyl)-6-morpholino-1-oxoisoindolin-5-yl)pyrazolo[1,5-a]pyrimidine-3-carboxamide] | 80
9 | COc1cc2c(cc1NC(=O)c1cnn3ccc(N[C@@H]4CCCC[C@@H]4N)nc13)CC(C)(C)O2 [Example 451, 5-[[(1R,2S)-2-aminocyclohexyl]amino]-N-(6-methoxy-2,2-dimethyl-3H-benzofuran-5-yl)pyrazolo[1,5-a]pyrimidine-3-carboxamide] | 4.7
10 | CC1(C)Cc2cc(NC(=O)c3cnn4cccnc34)c(C(N)=O)cc2O1 [Example 452, N-(6-carbamoyl-2,2-dimethyl-3H-benzofuran-5-yl)pyrazolo[1,5-a]pyrimidine-3-carboxamide] | 150
11 | Cc1noc(CN2CCN(c3cc4c(cc3NC(=O)c3cnn5cccnc35)CC(C)(C)O4)CC2)n1 [Example 459, N-(2,2-dimethyl-6-(4-((3-methyl-1,2,4-oxadiazol-5-yl)methyl)piperazin-1-yl)-2,3-dihydrobenzofuran-5-yl)pyrazolo[1,5-a]pyrimidine-3-carboxamide] | 16
12 | Cn1cc(CN2CCN(c3cc4c(cc3NC(=O)c3cnn5cccnc35)CC(C)(C)O4)CC2)cn1 [Example 460, N-(2,2-dimethyl-6-(4-((1-methyl-1H-pyrazol-4-yl)methyl)piperazin-1-yl)-2,3-dihydrobenzofuran-5-yl)pyrazolo[1,5-a]pyrimidine-3-carboxamide] | 5.9
13 | Cc1nc(CN2CCN(c3cc4c(cc3NC(=O)c3cnn5cccnc35)CC(C)(C)O4)CC2)no1 [Example 461, N-(2,2-dimethyl-6-(4-((5-methyl-1,2,4-oxadiazol-3-yl)methyl)piperazin-1-yl)-2,3-dihydrobenzofuran-5-yl)pyrazolo[1,5-a]pyrimidine-3-carboxamide] | 29
14 | CC1(C)Cc2cc(NC(=O)c3cnn4cccnc34)c(N3CCN(CCn4cccn4)CC3)cc2O1 [Example 462, N-(6-(4-(2-(1H-pyrazol-1-yl)ethyl)piperazin-1-yl)-2,2-dimethyl-2,3-dihydrobenzofuran-5-yl)pyrazolo[1,5-a]pyrimidine-3-carboxamide] | 6.5
15 | Cc1nnc(CN2CCN(c3cc4c(cc3NC(=O)c3cnn5cccnc35)CC(C)(C)O4)CC2)o1 [Example 463, N-(2,2-dimethyl-6-(4-((5-methyl-1,3,4-oxadiazol-2-yl)methyl)piperazin-1-yl)-2,3-dihydrobenzofuran-5-yl)pyrazolo[1,5-a]pyrimidine-3-carboxamide] | 25
16 | COCCCN1CCN(c2cc3c(cc2NC(=O)c2cnn4cccnc24)CC(C)(C)O3)CC1 [Example 465, N-(6-(4-(3-methoxypropyl)piperazin-1-yl)-2,2-dimethyl-2,3-dihydrobenzofuran-5-yl)pyrazolo[1,5-a]pyrimidine-3-carboxamide] | 38
17 | CC1(C)Cc2cc(NC(=O)c3cnn4cccnc34)c(N3CCN(C4CCNC4=O)CC3)cc2O1 (stereo not drawn) [Example 467, N-(2,2-dimethyl-6-(4-(2-oxopyrrolidin-3-yl)piperazin-1-yl)-2,3-dihydrobenzofuran-5-yl)pyrazolo[1,5-a]pyrimidine-3-carboxamide] | 13
18 | CC1(C)Cc2cc(NC(=O)c3cnn4cccnc34)c(N3CCN(CCN4CCCC4=O)CC3)cc2O1 [Example 470, N-(2,2-dimethyl-6-(4-(2-(2-oxopyrrolidin-1-yl)ethyl)piperazin-1-yl)-2,3-dihydrobenzofuran-5-yl)pyrazolo[1,5-a]pyrimidine-3-carboxamide] | 12
19 | CC1(C)Cc2cc(NC(=O)c3cnn4cc(CO)cnc34)c(N3CCOCC3)cc2O1 [Example 471, N-(2,2-dimethyl-6-morpholino-3H-benzofuran-5-yl)-6-(hydroxymethyl)pyrazolo[1,5-a]pyrimidine-3-carboxamide] | 6.5

Now from value to molecule:

Row | Ki [nM] | Compound
20 | 53 | CC1(C)Cc2cc(NC(=O)c3cnn4cccnc34)c(N3CCN(CC(=O)NCC4CCCO4)CC3)cc2O1 (stereo not drawn) [Example 440, N-(2,2-dimethyl-6-(4-(2-oxo-2-(((tetrahydrofuran-2-yl)methyl)amino)ethyl)piperazin-1-yl)-2,3-dihydrobenzofuran-5-yl)pyrazolo[1,5-a]pyrimidine-3-carboxamide]
21 | 44 | CCN1CCN(c2cc3c(cc2NC(=O)c2cnn4cccnc24)CC(C)(C)O3)CC1 [Example 453, N-(6-(4-ethylpiperazin-1-yl)-2,2-dimethyl-2,3-dihydrobenzofuran-5-yl)pyrazolo[1,5-a]pyrimidine-3-carboxamide]
22 | 8.8 | CSCCN1CCN(c2cc3c(cc2NC(=O)c2cnn4cccnc24)CC(C)(C)O3)CC1 [Example 454, N-(2,2-dimethyl-6-(4-(2-(methylthio)ethyl)piperazin-1-yl)-2,3-dihydrobenzofuran-5-yl)pyrazolo[1,5-a]pyrimidine-3-carboxamide]
23 | 5.8 | CC1(C)Cc2cc(NC(=O)c3cnn4cccnc34)c(N3CCN(CCC(N)=O)CC3)cc2O1 [Example 455, N-(6-(4-(3-amino-3-oxopropyl)piperazin-1-yl)-2,2-dimethyl-2,3-dihydrobenzofuran-5-yl)pyrazolo[1,5-a]pyrimidine-3-carboxamide]
24 | 2.6 | CC1(C)Cc2cc(NC(=O)c3cnn4cccnc34)c(N3CCN(CC#N)CC3)cc2O1 [Example 456, N-(6-(4-(cyanomethyl)piperazin-1-yl)-2,2-dimethyl-2,3-dihydrobenzofuran-5-yl)pyrazolo[1,5-a]pyrimidine-3-carboxamide]
25 | 4.4 | CC1(C)Cc2cc(NC(=O)c3cnn4cccnc34)c(N3CCN(CCC#N)CC3)cc2O1 [Example 457, N-(6-(4-(2-cyanoethyl)piperazin-1-yl)-2,2-dimethyl-2,3-dihydrobenzofuran-5-yl)pyrazolo[1,5-a]pyrimidine-3-carboxamide]
26 | 37 | CC1(C)Cc2cc(NC(=O)c3cnn4cccnc34)c(N3CCN(CC4CC4)CC3)cc2O1 [Example 458, N-(6-(4-(cyclopropylmethyl)piperazin-1-yl)-2,2-dimethyl-2,3-dihydrobenzofuran-5-yl)pyrazolo[1,5-a]pyrimidine-3-carboxamide]
27 | 67 | CC1(C)Cc2cc(NC(=O)c3cnn4cccnc34)c(N3CCN(CC4CCOCC4)CC3)cc2O1 [Example 464, N-(2,2-dimethyl-6-(4-((tetrahydro-2H-pyran-4-yl)methyl)piperazin-1-yl)-2,3-dihydrobenzofuran-5-yl)pyrazolo[1,5-a]pyrimidine-3-carboxamide]
28 | 99 | CC1(C)Cc2cc(NC(=O)c3cnn4cccnc34)c(N3CCN(CC4CCC4)CC3)cc2O1 [Example 466, N-(6-(4-(cyclobutylmethyl)piperazin-1-yl)-2,2-dimethyl-2,3-dihydrobenzofuran-5-yl)pyrazolo[1,5-a]pyrimidine-3-carboxamide]
29 | 5.1 | CC1(C)Cc2cc(NC(=O)c3cnn4cccnc34)c(N3CCN(CC4CCC(=O)N4)CC3)cc2O1 (stereo not drawn) [Example 468, N-(2,2-dimethyl-6-(4-((5-oxopyrrolidin-2-yl)methyl)piperazin-1-yl)-2,3-dihydrobenzofuran-5-yl)pyrazolo[1,5-a]pyrimidine-3-carboxamide]
30 | 8.8 | CC1(C)Cc2cc(NC(=O)c3cnn4cccnc34)c(N3CCN(CC(O)CO)CC3)cc2O1 (stereo not drawn) [Example 469, N-(6-(4-(2,3-dihydroxypropyl)piperazin-1-yl)-2,2-dimethyl-2,3-dihydrobenzofuran-5-yl)pyrazolo[1,5-a]pyrimidine-3-carboxamide]
